Converted amounts (≈) assume the structure as drawn.
Tests used:
recombinant 15-PGDH = biological target: T1, recombinant 15-PGDH (Homo sapiens, UniProt P15428); experiment: inhibition of enzymatic activity of recombinant 15-PGDH in vitro; assay type: biochemical; details: recombinant human 15-PGDH
T1 sequence (P15428 1-266): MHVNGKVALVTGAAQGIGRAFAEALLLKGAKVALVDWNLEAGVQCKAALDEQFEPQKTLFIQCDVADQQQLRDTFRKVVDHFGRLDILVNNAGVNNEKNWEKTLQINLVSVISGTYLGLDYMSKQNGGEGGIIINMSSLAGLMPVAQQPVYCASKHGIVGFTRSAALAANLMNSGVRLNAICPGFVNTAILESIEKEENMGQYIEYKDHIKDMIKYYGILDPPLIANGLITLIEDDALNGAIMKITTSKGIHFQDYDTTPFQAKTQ
Excerpt: The Recombinant 15-PGDH is human unless otherwise specified.

[1] = kinetic aqueous solubility in pH 7 citrate buffer; assay type: physicochemical; details: kinetic from dmso stock, pH 7 citrate buffer solution, read-out: Kinetic Aq solubility (μM pH 7)
hERG channels = hERG channels (Homo sapiens, UniProt Q12809); experiment: hERG test on manual patch-clamp system; assay type: cell-based; details: CHO-K1 cells expressing hERG, whole-cell patch clamp, room temperature
Sequence of hERG channels (Q12809 whole entry): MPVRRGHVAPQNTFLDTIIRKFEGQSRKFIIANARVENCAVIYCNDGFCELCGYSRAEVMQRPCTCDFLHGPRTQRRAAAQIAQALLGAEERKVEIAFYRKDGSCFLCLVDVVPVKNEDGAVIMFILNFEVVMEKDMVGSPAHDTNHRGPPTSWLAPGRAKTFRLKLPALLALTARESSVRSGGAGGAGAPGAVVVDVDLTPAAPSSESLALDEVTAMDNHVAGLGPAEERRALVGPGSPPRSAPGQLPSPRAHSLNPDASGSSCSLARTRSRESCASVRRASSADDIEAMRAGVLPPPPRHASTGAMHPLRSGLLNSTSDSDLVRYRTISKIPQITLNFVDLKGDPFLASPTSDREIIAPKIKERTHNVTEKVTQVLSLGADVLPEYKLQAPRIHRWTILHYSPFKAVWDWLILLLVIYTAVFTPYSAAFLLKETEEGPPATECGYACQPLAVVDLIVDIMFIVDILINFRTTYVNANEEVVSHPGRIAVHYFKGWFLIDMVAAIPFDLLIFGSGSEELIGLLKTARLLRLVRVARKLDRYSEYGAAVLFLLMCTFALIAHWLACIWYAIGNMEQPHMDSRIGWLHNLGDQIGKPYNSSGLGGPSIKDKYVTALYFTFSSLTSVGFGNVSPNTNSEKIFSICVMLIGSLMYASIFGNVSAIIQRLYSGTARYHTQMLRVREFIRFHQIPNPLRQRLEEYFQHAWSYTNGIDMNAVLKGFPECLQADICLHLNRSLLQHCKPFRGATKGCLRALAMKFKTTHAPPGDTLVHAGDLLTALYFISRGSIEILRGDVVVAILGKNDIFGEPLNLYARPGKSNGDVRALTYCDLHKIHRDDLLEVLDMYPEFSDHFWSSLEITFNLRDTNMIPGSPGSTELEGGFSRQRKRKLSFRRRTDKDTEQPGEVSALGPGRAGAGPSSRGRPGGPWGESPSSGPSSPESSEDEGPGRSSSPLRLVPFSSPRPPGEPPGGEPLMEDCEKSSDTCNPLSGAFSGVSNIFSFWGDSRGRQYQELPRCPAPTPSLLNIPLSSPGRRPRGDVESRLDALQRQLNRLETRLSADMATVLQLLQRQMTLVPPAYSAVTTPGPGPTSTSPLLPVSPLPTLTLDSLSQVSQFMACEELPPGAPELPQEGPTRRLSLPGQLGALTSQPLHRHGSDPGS
Experimental: Visual check for precipitation was conducted before testing.

SMILES	IC50 (recombinant 15-PGDH) [nM]	solubility kinetic [1] [µM]	IC50 (hERG channels) [nM]
COCC[S+]([O-])c1sc2nc(-c3cnc4nccnc4c3)cc(C3CCC3)c2c1N (stereo not shown) [Compound 7, 4-cyclobutyl-2-(2-methoxyethanesulfinyl)-6-{pyrido[2,3-b]pyrazin-7-yl}thieno[2,3-b]pyridin-3-amine]	< 2.5		
CC(C)c1cc(-c2cnc(NCCO)nc2)nc2sc([S@@+]([O-])C3CCC3)c(N)c12 [Compound 8]	> 10		
COCC[S@@+]([O-])c1sc2nc(-c3cnc4nn(C)cc4c3)c(C#N)c(-c3ccccc3)c2c1N [Compound 9, (R)-3-amino-2-((2-methoxyethyl)sulfinyl)-6-(2-methyl-2H-pyrazolo[3,4-b]pyridin-5-yl)-4-phenylthieno[2,3-b]pyridine-5-carbonitrile]	< 2.5	169 (≈ 82.6 µg/mL)	13000
Cn1nccc1-c1cc(-c2ccc3ncncc3c2)nc2sc([S@+]([O-])C3CCC3)c(N)c12 [Compound 10, 2-[(R)-cyclobutanesulfinyl]-4-(1-methyl-1H-pyrazol-5-yl)-6-(quinazolin-6-yl)thieno[2,3-b]pyridin-3-amine]	< 2.5		
COCC[S@@+]([O-])c1sc2nc(-c3cnc4cnccn34)cc(C3CCC3)c2c1N [Compound 11, (R)-4-cyclobutyl-6-(imidazo[1,2-a]pyrazin-3-yl)-2-((2-methoxyethyl)sulfinyl)thieno[2,3-b]pyridin-3-amine]	< 2.5		
Cn1nccc1-c1cc(-c2cnc3ncccc3c2)nc2sc([S+]([O-])C3CCC3)c(N)c12 (stereo not shown) [Compound 12, 2-(cyclobutanesulfinyl)-4-(1-methyl-1H-pyrazol-5-yl)-6-(1,8-naphthyridin-3-yl)thieno[2,3-b]pyridin-3-amine]	< 2.5		
COCC[S@@+]([O-])c1sc2nc(-c3cnc4cnccn34)cc(-c3ccnn3C)c2c1N [Compound 13, (R)-6-(imidazo[1,2-a]pyrazin-3-yl)-2-((2-methoxyethyl)sulfinyl)-4-(1-methyl-1H-pyrazol-5-yl)thieno[2,3-b]pyridin-3-amine]	< 2.5		
Cn1cc2cc(-c3cc(C4CC5(COC5)C4)c4c(N)c([S@+]([O-])C5CCC5)sc4n3)cnc2n1 [Compound 14, (R)-2-(cyclobutylsulfinyl)-6-(2-methyl-2H-pyrazolo[3,4-b]pyridin-5-yl)-4-(2-oxaspiro[3.3]heptan-6-yl)thieno[2,3-b]pyridin-3-amine]	< 2.5		
COCC[S@@+]([O-])c1sc2nc(-c3ccc4ncncc4c3)cc(-c3ccnn3C)c2c1N [Compound 15, 2-[(R)-2-methoxyethanesulfinyl]-4-(1-methyl-1H-pyrazol-5-yl)-6-(quinazolin-6-yl)thieno[2,3-b]pyridin-3-amine]	< 2.5		
COCC[S@@+]([O-])c1sc2nc(-c3ccc4cncnc4c3)cc(-c3ccnn3C)c2c1N [Compound 16, 2-[(R)-2-methoxyethanesulfinyl]-4-(1-methyl-1H-pyrazol-5-yl)-6-(quinazolin-7-yl)thieno[2,3-b]pyridin-3-amine]	< 2.5		
COCC[S+]([O-])c1sc2nc(-c3cnc4nn(C)cc4c3)nc(C(C)C)c2c1N (stereo not shown) [Compound 17, 4-isopropyl-6-((2-methoxyethyl)sulfinyl)-2-(2-methyl-2H-pyrazolo[3,4-b]pyridin-5-yl)thieno[2,3-d]pyrimidin-5-amine]	< 2.5	187 (≈ 80.5 µg/mL)	
CC(C)c1cc(-c2cnc(N)nc2)nc2sc([S@+]([O-])C3CCC3)c(N)c12 [Compound 20]	< 2.5		
CC(C)c1cc(-c2cnc(N)nc2)nc2sc([S@@+]([O-])C3CCC3)c(N)c12 [Compound 21]	> 10		
CNc1ncc(-c2cc(C(C)C)c3c(N)c([S@+]([O-])CCOC)sc3n2)cn1 [Compound 22, 5-{3-amino-2-[(R)-2-methoxyethanesulfinyl]-4-(propan-2-yl)thieno[2,3-b]pyridin-6-yl}-N-methylpyrimidin-2-amine]	< 2.5		
COCC[S@@+]([O-])c1sc2nc(-c3cnc4nn(C)cc4c3)cc(C(C)(C)C)c2c1N [Compound 28, 4-tert-butyl-2-[(R)-2-methoxyethanesulfinyl]-6-{2-methyl-2H-pyrazolo[3,4-b]pyridin-5-yl}thieno[2,3-b]pyridin-3-amine]	< 2.5		
Cn1nccc1-c1cc(-c2cnc3c(c2)CNCC3)nc2sc([S+]([O-])C3CCC3)c(N)c12 (stereo not shown) [Compound 31, 2-(cyclobutanesulfinyl)-4-(1-methyl-1H-pyrazol-5-yl)-6-(5,6,7,8-tetrahydro-1,6-naphthyridin-3-yl)thieno[2,3-b]pyridin-3-amine]	2.5 to 10		
COCC[S+]([O-])c1sc2nc(-c3cnc4c(c3)OCCN4)cc(-c3ccnn3C)c2c1N (stereo not shown) [Compound 32, 2-(2-methoxyethanesulfinyl)-4-(1-methyl-1H-pyrazol-5-yl)-6-{2H,3H,4H-pyrido[3,2-b][1,4]oxazin-7-yl}thieno[2,3-b]pyridin-3-amine]	< 2.5		
CC(C)c1cc(-c2cc(=O)n(C)cn2)nc2sc([S@+]([O-])C3CCC3)c(N)c12 [Compound 33, 6-{3-amino-2-[(R)-cyclobutanesulfinyl]-4-(propan-2-yl)thieno[2,3-b]pyridin-6-yl}-3-methyl-3,4-dihydropyrimidin-4-one]	< 2.5		
COCC[S@@+]([O-])c1sc2nc(-c3cc(=O)n(C)cn3)cc(C(C)C)c2c1N [Compound 34, 6-{3-amino-2-[(R)-2-methoxyethanesulfinyl]-4-(propan-2-yl)thieno[2,3-b]pyridin-6-yl}-3-methyl-3,4-dihydropyrimidin-4-one]	< 2.5		
CC(C)(C)c1cc(-c2cnc(N)nc2)nc2sc([S@+]([O-])C3CCC3)c(N)c12 [Compound 35, 5-{3-amino-4-tert-butyl-2-[(R)-cyclobutanesulfinyl]thieno[2,3-b]pyridin-6-yl}pyrimidin-2-amine]	< 2.5		
COCC[S@@+]([O-])c1sc2nc(-c3cc(=O)n(C)cn3)cc(-c3ccccc3)c2c1N [Compound A, reference compound]	< 2.5	64 (≈ 28.2 µg/mL)	

— patent US20230192717A1, “COMPOSITIONS AND METHODS OF MODULATING SHORT-CHAIN DEHYDROGENASE ACTIVITY” (RODEO THERAPEUTICS CORPORATION, priority 2020, published 2023)
